Experimental data: US9517243B2, “Beta-mannosylceramide and stimulation of NKT cell anti-tumor immunity” (The United States of America, as represented by the …, priority 2010, dated 2016)

How the values were obtained:
[1] = test system: B16F10 melanoma lung metastasis; experiment: In vivo lung metastasis assay, B16F10 melanoma; settings: C57BL/6 mice, dose titration; FIG. 12
Procedure: In vivo lung metastasis assay. 5×10^5 CT26 cells in 0.2 ml PBS were injected i.v. into the tail vein. Glycolipid or vehicle control (0.00025% Tween 20) was injected i.p. (in 0.2 ml PBS) within one hour after tumor challenge. Mice were sacrificed 12-16 days after tumor challenge, and lungs were stained and fixed and metastases were enumerated as previously described (Park, J. M., et al., International J. of Cancer, 114:80-87 (2004)). The same protocol was used for the B16F10 cell line, except that lungs were perfused with PBS instead of ink before removal.

[2] = test system: iNKT cells; experiment: In vitro iNKT activation (CFSE dilution, splenocytes); type: cell-based, mice
Procedure: In vitro iNKT activation. Splenocytes were harvested from mice (n=3), and erythrocytes were depleted with ACK Lysis Buffer (Lonza, Walkersville, Md.). Cells were labeled with 0.1 μM CFSE (Invitrogen, Carlsbad, Calif.) for 15 minutes at room temperature. Labeled cells (4×10^6 cells/well of 24-well plate) were stimulated for 3.5 days with glycolipid or vehicle control. At the end of the culture, cells were harvested and stained with PBS57-loaded CD1d tetramer (NIH Tetramer Facility) and anti-CD3 (clone 145-2C11, Biolegend). The fluorescence of stained cells was measured by FACSCalibur (BD Biosciences), and data were analyzed by Flowjo (Tree Star, Inc., Ashland, Oreg.).

[3] = test system: DN32.D3 NKT cell hybridoma; experiment: Plate-bound mCD1d hybridoma stimulation assay, DN32.D3; type: cell-based, mouse
Procedure: Plate-bound mCD1d hybridoma stimulation assay. Protocol was modified from that of Gumperz et al. (Gumperz, J. E., et al., Immunity, 12(2):211-221 (2000)). mCD1d dimer/Ig fusion protein (BD Biosciences) was incubated with the indicated concentrations of glycolipid in pH 5 sodium acetate buffer containing 0.01% Tween20 and 45 μg/ml saposin C (provided by Nico Tjandra and Motoshi Suzuki [both from National Heart, Lung, and Blood Institute, NIH, Bethesda, Md., USA]) overnight at 37° C. The mCD1d dimers loaded with glycolipid were loaded onto 96-well Protein G Plates (Pierce, Rockford, Ill.) and incubated for 48 hours at 37° C. The plates were washed with PBS and tissue culture media to remove anything not coated on the plates. 1×10^5 24.9. E or DN32.D3 iNKT hybridoma cells were added to each well and incubated at 37° C. and 5% CO2 for 24 hours. Supernatants were collected and analyzed for IL-2 by ELISA.

[4] = test system: BALB/c splenocytes; experiment: In vitro cytokine assay (ELISA); type: cell-based, BALB/c mice; settings: 48 hours
Procedure: In vitro cytokine assay. Splenocytes (8×10^5/well of 96 well plates) from BALB/c mice were stimulated with glycolipid or solvent control for 48 hours. Supernatants were collected, and the concentration of IFN-γ, IL-4, or IL-13 was determined by ELISA.

[5] = test system: IFN-γ, IL-4, IL-13, IL-12 (p70), and TNF-α in plasma; experiment: In vivo cytokine assay (plasma, multiplex); parameters: species or system BALB/c mice; settings: 0-24 hours
Procedure: FIGS. 8A-8E show graphs where the cytokine production induced by the glycolipid panel was tested in vivo. BALB/c mice were challenged with CT26 (5×10^5) i.v. followed by 50 pmoles of glycolipid or vehicle control i.p. at time 0. Mice were bled retroorbitally at 0, 3, 6, 12, and 24 hours, and the amount of IFN-γ (8A), TNF-α (8B), IL-4 (8C), IL-12 (p70) (8D), and IL-13 (8E) in plasma was determined. Each data point represents mean±SD of triplicates. […] Little cytokine production was detected following OCH and AH04-2 administration. β-ManCer induced very little cytokine production except for some IL-12 and TNF-α.
In vivo cytokine assay. The concentration of IFN-γ, IL-4, IL-13, IL-12 (p70), and TNF-α in plasma samples was determined by MILLIPLEX cytokine multiplex immunoassay kit (Millipore, Billerica, Mass.) using a Bio-Plex system (Bio-Rad, Hercules, Calif.) according to manufacturer's instructions.

[6] = test system: activated NKT cells; experiment: Anergy: re-stimulation of splenocytes one month after in vivo treatment; parameters: species or system mice
Procedure: FIG. 13A is a graph showing splenocyte proliferation measured by ^3H-thymidine incorporation during the final 8 hours of a 72-hour culture after being re-stimulated in culture. Pretreatment with α-GalCer induces anergy but pretreatment with β-ManCer induces much less anergy.
FIG. 13B is a graph showing the amount of IFN-γ produced by the splenocyte culture after 48 hours of re-stimulation.
It is known that α-GalCer induces strong anergy of activated NKT cells for over a month after in vivo stimulation. […] Mice were treated with α-GalCer, β-ManCer, or vehicle, and one month later, splenocytes were re-stimulated, and the degree of activation was measured by proliferation and IFN-γ production.

[7] = test system: iNKT cells; experiment: Upregulation of activation markers CD25 and CD69 on iNKT cells; type: cell-based; settings: mouse splenocytes stimulated overnight; data not shown

## CCCCCCCCCCCCCCCCCCCCCCCCCC(=O)N[C@@H](COC1OC(CO)C(O)C(O)C1O)[C@H](O)[C@H](O)CCCCCCCCCCCCCC (stereo partly drawn) [β-ManCer, 2-hexacosanoylamino-1-O-β-mannopyranosyl-D-ribo-1,3,4-octadecanetriol]
[1]
  Tumor protection against B16F10 melanoma lung metastasis, relative to α-GalCer: at least as potent
[2]; 3.5-day stimulation
  Inhibition of iNKT proliferation by CD1d-blocking antibody: 86%
[2]; 3.5-day stimulation of mouse splenocytes, FIG. 3
  Proliferation of iNKT cells (CFSE dilution): 40%
[2]; 3.5-day stimulation, CD1d-blocking antibody
  Proliferation of iNKT cells with CD1d-blocking antibody: 5.4%
[3]; DN32.D3
  Increase in IL-2 production over unloaded mCD1d: over 500 fold
[3]; DN32.D3, 24 hours, no APCs, FIG. 5
  IL-2 production, glycolipid-loaded mCD1d dimers: able to induce IL-2 production
[3]; DN32.D3, FIG. 5
  IL-2 production, soluble glycolipid in the absence of CD1d: failed to induce IL-2 production above background
[4]; IFN-γ, IL-4, IL-13
  Cytokine production in vitro (overall): least cytokine production
[4]; glycolipid less than 30 nM
  Cytokines at concentrations less than 30 nM: no cytokines detected
[5]; 50 pmoles i.p. after CT26 i.v., FIG. 8A
  IFN-γ in plasma: no substantial increase
[5]; 50 pmoles i.p.
  IL-12 in plasma: only a modest increase
  TNF-α in plasma: only a modest increase
[5]; 50 pmoles i.p., FIG. 8C
  IL-4 in plasma: no substantial increase
[5]; 50 pmoles i.p., FIG. 8E
  IL-13 in plasma: no substantial increase
[6]; 48 hours of re-stimulation, FIG. 13B
  IFN-γ production on re-stimulation, compared to cells from vehicle-treated mice: slight reduction
[6]; re-stimulation with α-GalCer or β-ManCer, 3H-thymidine, 72-hour culture, FIG. 13A
  Splenocyte proliferation on re-stimulation, compared to cells from vehicle-treated mice: slight reduction
[7]
  Upregulation of CD25 and CD69 on iNKT cells: induced upregulation
